Experiment: isobaric coefficient of expansion
Details: Liquid, Microcalorimeter

CCn1cc[n+](C)c1.O=S(=O)([N-]S(=O)(=O)C(F)(F)F)C(F)(F)F
isobaric coefficient of expansion
Details	5000 kPa	10000 kPa	15000 kPa	20000 kPa	25000 kPa	30000 kPa	35000 kPa	40000 kPa	45000 kPa	50000 kPa
278.15 K	0.00067 1/K	0.000659 1/K	0.000651 1/K	0.000645 1/K	0.000634 1/K	0.000628 1/K	0.000623 1/K	0.000612 1/K	0.000606 1/K	0.0006 1/K
288.15 K	0.000664 1/K	0.000653 1/K	0.000646 1/K	0.00064 1/K	0.000631 1/K	0.000623 1/K	0.000616 1/K	0.000606 1/K	0.000601 1/K	0.000597 1/K
298.15 K	0.000659 1/K	0.000651 1/K	0.000641 1/K	0.000633 1/K	0.000624 1/K	0.000617 1/K	0.000606 1/K	0.0006 1/K	0.000595 1/K	0.000589 1/K
308.15 K	0.000656 1/K	0.000644 1/K	0.000637 1/K	0.000627 1/K	0.000618 1/K	0.000611 1/K	0.000605 1/K	0.000597 1/K	0.000589 1/K	0.000581 1/K
318.15 K	0.000649 1/K	0.000644 1/K	0.000634 1/K	0.000623 1/K	0.000615 1/K	0.000607 1/K	0.000599 1/K	0.00059 1/K	0.000582 1/K	0.000576 1/K
328.15 K	0.000645 1/K	0.000635 1/K	0.000628 1/K	0.00062 1/K	0.000609 1/K	0.000601 1/K	0.000593 1/K	0.000584 1/K	0.000576 1/K	0.00057 1/K
338.15 K	0.000643 1/K	0.000633 1/K	0.000624 1/K	0.000614 1/K	0.000604 1/K	0.000598 1/K	0.000588 1/K	0.000582 1/K	0.000574 1/K	0.000569 1/K
348.15 K	0.00064 1/K	0.000629 1/K	0.00062 1/K	0.000612 1/K	0.000602 1/K	0.000595 1/K	0.000588 1/K	0.000579 1/K	0.000572 1/K	0.000565 1/K

— the NIST ThermoML archive (doi:10.1021/je900482x)
